Test results: patent US20080015198A1, “Substituted pyrazoline compounds, their preparation and use as medicaments” (LABORATORIOS DEL DR.ESTEVE S.A., priority 2004, published 2008)

Legend:
[1] = tested on: cannabinoid receptors; assay: Mouse tetrad model, agonistic effect; assay type: in vivo, mice; conditions: 5 mg/kg i.v.; for Agonistic effect B: Hypothermia: unit assumed
Source text: (§1) Substances with affinity for cannabinoid receptors are known to produce a wide range of pharmacological effects. It is also known that intravenous administration of a substance with affinity for cannabinoid receptors in mice produces analgesia, hypothermia, sedation and catalepsy. Individually, none of these effects can be considered as proof that a tested substance has affinity for cannabinoid-receptors, since all of these effects are common for various classes of centrally active agents. However, substances, which show all of these effects, i.e. substances that are active in this so-called tetrad model are considered to have affinity for the cannabinoid receptors. It has further been shown that cannabinoid receptor antagonists are higly effective in blocking the effects of a cannabinoid agonist in the mouse tetrad model.
(§2) The tetrad model is described, for example, in the publication of A. C. Howlett et al, International Union of Pharmacology XXVII. Classification of Cannabinoid Receptors, Pharmacol Rev 54, 161-202, 2002 and David R. Compton et al., “In-vivo Characterization of a Specific Cannabinoid Receptor Antagonist (SR141716A): Inhibition of Tetrahydrocannbinol-induced Responses and Apparent Agonist Activity”, J. Pharmacol. Exp. Ther. 277 , 2, 586-594, 1996. The corresponding parts of the description are hereby incorporated by reference.
(§3) Male NMRI mice with a weight of 20-30 g (Harlan, Barcelona, Spain) are used in all of the following experiments.
(§4) Before testing in the behavioral procedures given below, mice are acclimatized to the experimental setting. Pre-Treatment control values are determined for analgesia hot plate latency (in seconds), rectal temperature, sedation and catalepsy.
In order to determine the agonistic activty of the substance to be tested, the mice are injected intravenously with the substance to be tested or the vehicle alone. 15 minutes after injection, latency in hot plate analgesia is measured. Rectal temperature, sedation and catalepsy are measured 20 minutes after injection.
(§5) The hot plate analgesia is determined according to the method described in Woolfe D. et al. “The evaluation of analgesic action of pethidine hydrochloride (Demerol)”, J. Pharmacol. Exp. Ther. 80, 300-307, 1944.
(§6) The mice are placed on a hot plate (Harvard Analgesimeter) at 55±0.5° C. until they show a painful sensation by licking their paws or jumping and the time for these sensations to occur is recorded. This reading is considered the basal value (B). The maximum time limit the mice are allowed to remain on the hot plate in absence of any painful response is 40 seconds in order to prevent skin damage. This period is called the cut-off time (PC).
(§7) Fifteen minutes after the administration of the substance to be tested, the mice are again placed on the hot plate and the afore described procedure is repeated. This period is called the post-treatment reading (PT).
(§8) The degree of analgesia is calculated from the formula:
(§9) % MPE of Analgesia=(PT−B)/(PC−B)×100
(§10) Sedation and ataxia is determined according to the method described in Desmet L. K. C. et al. “Anticonvulsive properties of Cinarizine and Flunarizine in Rats and Mice”, Arzneim. -Forsch. (Frug Res) 25, 9, 1975.
(§11) The percentage of sedation is determined according to the formula:
(§12) % of sedation=arithmetic mean/3×100
(§13) Hypothermia is determined according to the method described in David R. Compton et. al. “In-vivo Characterization of a Specific Cannabinoid Receptor Antagonist (SR141716A) Inhibition of Tetrahydrocannbinol-induced Responses and Apparent Agonist Activity”, J. Pharmacol Exp Ther. 277, 2, 586-594, 1996.

[2] = In-vivo testing for antiobesic activity; conditions: rats
[3] = In-vivo testing for antidepressant activity, water despair test
Procedure: The in-vivo testing for antidepressant activity of the inventive pyrazoline compounds in the water despair test was carried out as described above.

[4] = tested on: cannabinoid receptors; assay: Mouse tetrad model, antagonistic effect against Win 55212-2; assay type: in vivo, mice; conditions: 5 mg/kg i.v. prior to Win 55212-2 in a dose of 1.25 mg/kg i.v.; for Antagonistic effect A: Hot-Plate test / Antagonistic effect B: Hypothermia: unit assumed
Source text: as §1, §2, §3, §4
In order to determine the antagonistic activity the identical procedure is used as for the determination of the agonistic effects, but with the difference that the substance to be evaluated for its antagonistic activity is injectected 5 minutes before the intravenous injection of 1.25 mg/kg Win-55,212 a known cannabinoid-receptor agonist.
as §5, §6, §7, §8, §9, §10, §11, §12, §13

[5] = molecular target: T1, CB2-Receptor (Homo sapiens, UniProt P34972); assay: In-vitro determination of affinity to CB2-receptor, radioligand [3H]-CP55940; assay type: binding
T1 construct: purchased Receptor Biology, Inc
Procedure: Brockie et al., “Agonist-inverse agonist characterization at CB1 and CB2 cannabinoid receptors of L-759633, L759656 and AM630”, British Journal of Pharmacology, 126, 665-672, (1999), whereby the transfected human CB1 and CB2 receptors of Receptor Biology, Inc. are used. The radioligand used for both receptors is [^3H]-CP55940.
The affinity of the inventive substituted pyrazoline compounds to CB1/CB2 receptors was determined as described above.

T1 sequence (P34972 whole entry): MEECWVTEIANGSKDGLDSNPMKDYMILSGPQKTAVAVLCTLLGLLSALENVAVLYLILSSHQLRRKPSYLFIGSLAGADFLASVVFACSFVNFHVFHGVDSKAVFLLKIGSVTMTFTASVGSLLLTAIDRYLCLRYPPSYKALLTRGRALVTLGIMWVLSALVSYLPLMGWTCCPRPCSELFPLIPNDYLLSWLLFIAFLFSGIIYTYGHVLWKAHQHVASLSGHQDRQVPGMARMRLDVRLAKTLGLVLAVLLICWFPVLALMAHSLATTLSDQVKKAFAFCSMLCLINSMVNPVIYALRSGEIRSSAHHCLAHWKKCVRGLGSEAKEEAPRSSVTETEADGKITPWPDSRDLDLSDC

Compound | melting point | Agonistic effect A: Hot-Plate test [1] | Agonistic effect C: Catalepsy [1] | Agonistic effect D: Sedation [1] | Agonistic effect B: Hypothermia [1] | body weight ([2]; 10 mg/kg intraperitoneally daily over 14 days, FIG. 1) | food intake ([2]; 10 mg/kg intraperitoneally daily over 14 days, FIG. 2) | body weight effect after the treatment is ended ([2]; after end of 14 days of 10 mg/kg i.p. daily, FIG. 1) | immobility time [3] | struggling time [3] | Antagonistic effect C: Catalepsy [4] | Antagonistic effect D: Sedation [4] | Antagonistic effect A: Hot-Plate test [4] | Antagonistic effect B: Hypothermia [4] | Ki [5]
O=C(Nn1cnnc1)C1=NN(c2ccc(Cl)cc2Cl)C(c2ccc(Cl)cc2)C1 (stereo not shown) | 134 to 138 °C |  |  |  |  |  |  |  |  |  |  |  |  |  | 
CN1CCN(NC(=O)C2=NN(c3ccc(Cl)cc3Cl)C(c3ccc(Cl)cc3)C2)CC1.Cl (stereo not shown) | 150 to 155 °C |  |  |  |  |  |  |  |  |  |  |  |  |  | 
O=C(NN1CCCCC1)C1=NN(c2ccc(Cl)cc2Cl)C(c2ccc(Cl)cc2)C1 (stereo not shown) [Example 1, N-piperidinyl-5-(4-chlorophenyl)-1-(2,4-dichlorophenyl)-4,5-dihydro-1H-pyrazole-3-carboxamide] |  | 0% | 0% | 0 | 0% | lowered | reduction of food intake | also observed after the treatment is ended | positive effects | positive effects | 100% | 100% | 74% | 100% | 
O=C(C1=NN(c2ccc(Cl)cc2Cl)C(c2ccc(Cl)cc2)C1)N1CCCCC1 (stereo not shown) [Example 5, [5-(4-Chloro-phenyl)-1-(2,4-dichloro-phenyl)-4,5-dihydro-1H-pyrazol-3-yl]-piperidin-1-yl-methanone] | 105 to 110 °C | 0% | 0% | 0 | 50% |  |  |  |  |  | 20% | 20% | 50% | 40% | ~1000 nM
